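In this assay, cells in 96-well plates receive the compound at five concentrations for 48 hours. Endpoints are linearly interpolated between the surrounding concentrations. Abbreviation: GI50, concentration required for 50% inhibition of growth.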 Calls of active or inactive are those of the source. Cut-off read from the data, not from the text of the source: active = GI50 up to about 1.1 µM and inactive = higher.
Key:
Experiment in all cases: growth of human tumour cells (NCI), 48 h
HL-60 = tested on: HL-60
NCI-H460 = tested on: NCI-H460
CAKI-1 = tested on: CAKI-1
A498 = tested on: A498
DU-145 = tested on: DU-145
ACHN = tested on: ACHN
RXF 393 = tested on: RXF 393
MOLT-4 = tested on: MOLT-4
OVCAR-3 = tested on: OVCAR-3
SK-MEL-2 = tested on: SK-MEL-2
BT-549 = tested on: BT-549
UO-31 = tested on: UO-31
HOP-62 = tested on: HOP-62
Malme-3M = tested on: Malme-3M
EKVX = tested on: EKVX
UACC-257 = tested on: UACC-257
PC-3 = tested on: PC-3
U-251 = tested on: U-251
SN12C = tested on: SN12C
HT-29 = tested on: HT-29
OVCAR-5 = tested on: OVCAR-5
786-0 = tested on: 786-0
RPMI-8226 = tested on: RPMI-8226
SR = tested on: SR
CCRF-CEM = tested on: CCRF-CEM
SF-295 = tested on: SF-295
M14 = tested on: M14
LOX IMVI = tested on: LOX IMVI
SNB-75 = tested on: SNB-75
NCI-H522 = tested on: NCI-H522
A549 = tested on: A549
SF-268 = tested on: SF-268
HOP-92 = tested on: HOP-92
MCF7 = tested on: MCF7
TK-10 = tested on: TK-10
SK-MEL-28 = tested on: SK-MEL-28
NCI-H226 = tested on: NCI-H226
K562 = tested on: K562
MDA-MB-231 = tested on: MDA-MB-231
HCT-15 = tested on: HCT-15
UACC-62 = tested on: UACC-62
OVCAR-4 = tested on: OVCAR-4
COLO 205 = tested on: COLO 205
SK-MEL-5 = tested on: SK-MEL-5
Hs-578T = tested on: Hs-578T
NCI-H23 = tested on: NCI-H23
HCC 2998 = tested on: HCC 2998
SNB-19 = tested on: SNB-19
MDA-N = tested on: MDA-N
NCI/ADR-RES = tested on: NCI/ADR-RES
SK-OV-3 = tested on: SK-OV-3
SW-620 = tested on: SW-620
IGROV-1 = tested on: IGROV-1
KM12 = tested on: KM12
T47D = tested on: T47D
OVCAR-8 = tested on: OVCAR-8
HCT-116 = tested on: HCT-116
MDA-MB-435 = tested on: MDA-MB-435
SF-539 = tested on: SF-539

For O=c1c2c3c(sc2nc(CN2CCNCC2)n1-c1ccccc1)CCCC3, the GI50 (HL-60) was > 100 µM (inactive), the GI50 (NCI-H460) was > 100 µM (inactive) and the GI50 (CAKI-1) was 90.8 µM (inactive). For the same compound, the GI50 (A498) was > 100 µM (inactive), the GI50 (DU-145) was > 100 µM (inactive) and the GI50 (ACHN) was > 100 µM (inactive). The GI50 (RXF 393) was > 100 µM (inactive), the GI50 (MOLT-4) was > 100 µM (inactive) and the GI50 (OVCAR-3) was > 100 µM (inactive). The GI50 (SK-MEL-2) was > 100 µM (inactive), the GI50 (BT-549) was > 100 µM (inactive) and the GI50 (UO-31) was 54.2 µM (inactive). For the same compound, the GI50 (HOP-62) was > 100 µM (inactive), the GI50 (Malme-3M) was > 100 µM (inactive) and the GI50 (EKVX) was > 100 µM (inactive). The GI50 (UACC-257) was > 100 µM (inactive), the GI50 (PC-3) was > 100 µM (inactive) and the GI50 (U-251) was > 100 µM (inactive). The GI50 (SN12C) was > 100 µM (inactive), the GI50 (HT-29) was 35.9 µM (inactive) and the GI50 (OVCAR-5) was > 100 µM (inactive). For the same compound, the GI50 (786-0) was > 100 µM (inactive), the GI50 (RPMI-8226) was > 100 µM (inactive) and the GI50 (SR) was > 100 µM (inactive). For the same compound, the GI50 (CCRF-CEM) was > 100 µM (inactive), the GI50 (SF-295) was > 100 µM (inactive) and the GI50 (M14) was > 100 µM (inactive). For the same compound, the GI50 (LOX IMVI) was > 100 µM (inactive), the GI50 (SNB-75) was 34.8 µM (inactive) and the GI50 (NCI-H522) was > 100 µM (inactive). For the same compound, the GI50 (A549) was > 100 µM (inactive), the GI50 (SF-268) was 65.5 µM (inactive) and the GI50 (HOP-92) was > 100 µM (inactive). The GI50 (MCF7) was > 100 µM (inactive), the GI50 (TK-10) was > 100 µM (inactive) and the GI50 (SK-MEL-28) was > 100 µM (inactive). The GI50 (NCI-H226) was > 100 µM (inactive), the GI50 (K562) was > 100 µM (inactive) and the GI50 (MDA-MB-231) was > 100 µM (inactive). The GI50 (HCT-15) was over 100 µM, the GI50 (UACC-62) was > 100 µM (inactive) and the GI50 (OVCAR-4) was 22.8 µM (inactive). The GI50 (COLO 205) was > 100 µM (inactive), the GI50 (SK-MEL-5) was > 100 µM (inactive) and the GI50 (Hs-578T) was > 100 µM (inactive). For the same compound, the GI50 (NCI-H23) was > 100 µM (inactive), the GI50 (HCC 2998) was > 100 µM (inactive) and the GI50 (SNB-19) was > 100 µM (inactive). The GI50 (MDA-N) was 89.1 µM (inactive), the GI50 (NCI/ADR-RES) was > 100 µM (inactive) and the GI50 (SK-OV-3) was > 100 µM (inactive). For the same compound, the GI50 (SW-620) was > 100 µM (inactive), the GI50 (IGROV-1) was > 100 µM (inactive) and the GI50 (KM12) was > 100 µM (inactive). For the same compound, the GI50 (T47D) was 99.5 µM (inactive), the GI50 (OVCAR-8) was > 100 µM (inactive) and the GI50 (HCT-116) was 53.3 µM (inactive).
With CN(C)c1ccc(C2SCC(=O)N2NS(=O)(=O)c2cccc(C(=O)O)c2)cc1 (configuration not stated) the GI50 (HL-60) was 16.3 µM (inactive), the GI50 (NCI-H460) was 76.2 µM (inactive) and the GI50 (CAKI-1) was > 100 µM (inactive). The GI50 (DU-145) was > 100 µM (inactive), the GI50 (ACHN) was > 100 µM (inactive) and the GI50 (RXF 393) was > 100 µM (inactive). The GI50 (MOLT-4) was 42.8 µM (inactive), the GI50 (OVCAR-3) was > 100 µM (inactive) and the GI50 (SK-MEL-2) was > 100 µM (inactive). The GI50 (BT-549) was > 100 µM (inactive), the GI50 (MDA-MB-435) was > 100 µM (inactive) and the GI50 (UO-31) was 72.8 µM (inactive). The GI50 (HOP-62) was > 100 µM (inactive), the GI50 (Malme-3M) was 99.8 µM (inactive) and the GI50 (EKVX) was > 100 µM (inactive). The GI50 (UACC-257) was > 100 µM (inactive), the GI50 (PC-3) was > 100 µM (inactive) and the GI50 (U-251) was > 100 µM (inactive). For the same compound, the GI50 (SN12C) was > 100 µM (inactive), the GI50 (HT-29) was > 100 µM (inactive) and the GI50 (OVCAR-5) was > 100 µM (inactive). For the same compound, the GI50 (786-0) was 17.2 µM (inactive), the GI50 (RPMI-8226) was 45.9 µM (inactive) and the GI50 (CCRF-CEM) was 0.731 µM (active). For the same compound, the GI50 (SF-295) was 94 µM (inactive), the GI50 (M14) was > 100 µM (inactive) and the GI50 (LOX IMVI) was > 100 µM (inactive). The GI50 (SNB-75) was > 100 µM (inactive), the GI50 (NCI-H522) was 28.2 µM (inactive) and the GI50 (A549) was 99.3 µM (inactive). For the same compound, the GI50 (SF-268) was > 100 µM (inactive), the GI50 (HOP-92) was > 100 µM (inactive) and the GI50 (MCF7) was 64.9 µM (inactive). For the same compound, the GI50 (TK-10) was > 100 µM (inactive), the GI50 (SK-MEL-28) was 97.7 µM (inactive) and the GI50 (NCI-H226) was 52 µM (inactive). The GI50 (K562) was 35.6 µM (inactive), the GI50 (MDA-MB-231) was > 100 µM (inactive) and the GI50 (HCT-15) was 76.9 µM. The GI50 (UACC-62) was > 100 µM (inactive), the GI50 (SF-539) was 46.3 µM (inactive) and the GI50 (COLO 205) was > 100 µM (inactive). For the same compound, the GI50 (SK-MEL-5) was > 100 µM (inactive), the GI50 (Hs-578T) was > 100 µM (inactive) and the GI50 (NCI-H23) was > 100 µM (inactive). For the same compound, the GI50 (HCC 2998) was > 100 µM (inactive), the GI50 (SNB-19) was > 100 µM (inactive) and the GI50 (MDA-N) was > 100 µM (inactive). For the same compound, the GI50 (SK-OV-3) was > 100 µM (inactive), the GI50 (SW-620) was > 100 µM (inactive) and the GI50 (IGROV-1) was > 100 µM (inactive). The GI50 (KM12) was > 100 µM (inactive), the GI50 (T47D) was > 100 µM (inactive) and the GI50 (OVCAR-8) was 17.7 µM (inactive). For the same compound, the GI50 (HCT-116) was > 100 µM (inactive).
